From patent US9833497B2, “Human originated EGF domain proteins and use of the same” (CHENGDU SOURCEBIO LIMITED-LIABILITY COMPANY, priority 2013, dated 2017)

How the values were obtained:
Format in all cases: cell-based
Citrobacter diversus = assay: MIC against Gram-negative bacteria: Citrobacter diversus
Outline: (§1)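 Bacteria grown in LB at 37° C to McFarland 0.5, resuspended and seeded at 5×10^5 CFU/mL in 96-well plates. Purified human EGF-domain proteins two-fold serially diluted, triplicate wells; cultured at 37° C, shaking 175 rpm. MIC = lowest protein concentration with no growth.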

E. coli BL21 = assay: MIC against Gram-negative bacteria: E. coli BL21; conditions: for MIC / MIC (μg/mL) E. coli BL21: E. coli BL21
Outline: as §1

Enterobacter cloacae = assay: MIC against Gram-negative bacteria: Enterobacter cloacae
Outline: as §1

Aeromonas hydrophila = assay: MIC against Gram-negative bacteria: Aeromonas hydrophila
Outline: as §1

Proteus vulgaris = assay: MIC against Gram-negative bacteria: Proteus vulgaris
Outline: as §1

E. coli DH5α = assay: Antibacterial activity: MIC and growth curve against E. coli DH5α in 96-well plate; conditions: minimal inhibitory concentration against E. coli DH5α; 96-well plate, 5×10^5 CFU/mL, 37° C., judged after 8 h
Outline: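 MIC taken as lowest protein level with no bacterial growth, tracked by A600 every 30 min during 37 °C, 175 rpm culture. Two-fold protein series 50-12.5 μg/mL final, triplicate wells, against 5×10^5 CFU/mL of LB-washed mid-log cells.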

Klebsiella pneumonia = assay: MIC against Gram-negative bacteria: Klebsiella pneumonia
Outline: as §1

Proteus mirabilis = assay: MIC against Gram-negative bacteria: Proteus mirabilis
Outline: as §1

Serratia marcescens = assay: MIC against Gram-negative bacteria: Serratia marcescens
Outline: as §1

Moraxella catarrhalis = assay: MIC against Gram-negative bacteria: Moraxella catarrhalis
Outline: as §1

Pseudomonas aeruginosa = assay: MIC against Gram-negative bacteria: Pseudomonas aeruginosa
Outline: as §1

[1] = 96-well plate, 5×10^5 CFU/mL, 37° C., 10 h
[2] = 10 h cultivation at 37° C., 5×10^5 CFU/mL, two-fold serial dilution
[3] = C. diversus, 10 h cultivation at 37° C., 5×10^5 CFU/mL
[4] = 10 h cultivation at 37° C., 5×10^5 CFU/mL
[5] = E. cloacae, 10 h cultivation at 37° C., 5×10^5 CFU/mL
[6] = A. hydrophila, 10 h cultivation at 37° C., 5×10^5 CFU/mL
[7] = P. vulgaris, 10 h cultivation at 37° C., 5×10^5 CFU/mL
[8] = K. pneumonia, 10 h cultivation at 37° C., 5×10^5 CFU/mL
[9] = P. mirabilis, 10 h cultivation at 37° C., 5×10^5 CFU/mL
[10] = S. marcescens, 10 h cultivation at 37° C., 5×10^5 CFU/mL
[11] = M. catarrhalis, 10 h cultivation at 37° C., 5×10^5 CFU/mL
[12] = P. aeruginosa, 10 h cultivation at 37° C., 5×10^5 CFU/mL

PRT685 (DVNECLEGDFCFPHGECLNTDGSFACTCAPGYRPGPRGASCL; listed as Homo sapiens)
50 µg/mL: MIC A. hydrophila (Aeromonas hydrophila; [1]) | MIC P. vulgaris (Proteus vulgaris; [1]) | MIC (E. coli DH5α) | MIC K. pneumonia (Klebsiella pneumonia; [1]) | MIC S. marcescens (Serratia marcescens; [1]) | MIC M. catarrhalis (Moraxella catarrhalis; [1])
12.5 µg/mL: MIC C. diversus (Citrobacter diversus; [1]) | MIC E. cloacae (Enterobacter cloacae; [1]) | MIC P. aeruginosa (Pseudomonas aeruginosa; [1])
25 µg/mL: MIC E. coli BL21 (E. coli BL21; [1]) | MIC P. mirabilis (Proteus mirabilis; [1])

PRT992 (LEDMCLSQPCHGDAQCSTNPLTGSTLCLCQPGYSGPTCH; listed as Homo sapiens)
12.5 µg/mL: MIC (E. coli BL21; 10 h cultivation at 37° C.) | MIC (Proteus vulgaris; P. vulgaris, 10 h cultivation at 37° C.) | MIC (E. coli DH5α) | MIC (Klebsiella pneumonia; K. pneumonia, 10 h cultivation at 37° C.) | MIC (Pseudomonas aeruginosa; P. aeruginosa, 10 h cultivation at 37° C.)
25 µg/mL: MIC (Citrobacter diversus; C. diversus, 10 h cultivation at 37° C.) | MIC (Enterobacter cloacae; E. cloacae, 10 h cultivation at 37° C.) | MIC (Aeromonas hydrophila; A. hydrophila, 10 h cultivation at 37° C.) | MIC (Proteus mirabilis; P. mirabilis, 10 h cultivation at 37° C.) | MIC (Serratia marcescens; S. marcescens, 10 h cultivation at 37° C.) | MIC (Moraxella catarrhalis; M. catarrhalis, 10 h cultivation at 37° C.)

PRT1119 (EVLECASAPCEHNASCLEGLGSFRCLCWPGYSGELCE; listed as Homo sapiens)
100 µg/mL: MIC (E. coli DH5α)
25 µg/mL: MIC E. coli BL21 (E. coli BL21; [2]) | MIC A. hydrophila (Aeromonas hydrophila; [2]) | MIC P. vulgaris (Proteus vulgaris; [2]) | MIC K. pneumonia (Klebsiella pneumonia; [2]) | MIC M. catarrhalis (Moraxella catarrhalis; [2])
12.5 µg/mL: MIC E. cloacae (Enterobacter cloacae; [2]) | MIC P. mirabilis (Proteus mirabilis; [2])
50 µg/mL: MIC C. diversus (Citrobacter diversus; [2]) | MIC S. marcescens (Serratia marcescens; [2]) | MIC P. aeruginosa (Pseudomonas aeruginosa; [2])

PRT143 (PRNPCRMSCQNHGRLNISTCHCHCPPGYTGRYCQ; listed as Homo sapiens)
25 µg/mL: MIC (μg/mL) P. mirabilis (Proteus mirabilis; Proteus mirabilis, 96-well plate, 5×10^5 CFU/mL, 37° C., 10 h) | MIC (μg/mL) S. marcescens (Serratia marcescens; Serratia marcescens, 96-well plate, 5×10^5 CFU/mL, 37° C., 10 h)
50 µg/mL: MIC (μg/mL) M. catarrhalis (Moraxella catarrhalis; Moraxella catarrhalis, 96-well plate, 5×10^5 CFU/mL, 37° C., 10 h)
12.5 µg/mL: MIC (μg/mL) C. diversus (Citrobacter diversus; Citrobacter diversus, 96-well plate, 5×10^5 CFU/mL, 37° C., 10 h) | MIC (μg/mL) E. coli BL21 (E. coli BL21; [1]) | MIC (μg/mL) E. cloacae (Enterobacter cloacae; Enterobacter cloacae, 96-well plate, 5×10^5 CFU/mL, 37° C., 10 h) | MIC (μg/mL) A. hydrophila (Aeromonas hydrophila; Aeromonas hydrophila, 96-well plate, 5×10^5 CFU/mL, 37° C., 10 h) | MIC (μg/mL) P. vulgaris (Proteus vulgaris; Proteus vulgaris, 96-well plate, 5×10^5 CFU/mL, 37° C., 10 h) | MIC (E. coli DH5α) | MIC (μg/mL) K. pneumonia (Klebsiella pneumonia; Klebsiella pneumonia, 96-well plate, 5×10^5 CFU/mL, 37° C., 10 h) | MIC (μg/mL) P. aeruginosa (Pseudomonas aeruginosa; Pseudomonas aeruginosa, 96-well plate, 5×10^5 CFU/mL, 37° C., 10 h)

PRT765 (VRDKCALGSHGCQHICVSDGAASYHCDCYPGYTLNEDKKTCS; listed as Homo sapiens)
12.5 µg/mL: MIC (μg/mL) C. diversus (Citrobacter diversus; [3]) | MIC (μg/mL) E. cloacae (Enterobacter cloacae; [5]) | MIC (μg/mL) A. hydrophila (Aeromonas hydrophila; [6]) | MIC (μg/mL) P. vulgaris (Proteus vulgaris; [7]) | MIC (E. coli DH5α) | MIC (μg/mL) P. mirabilis (Proteus mirabilis; [9]) | MIC (μg/mL) S. marcescens (Serratia marcescens; [10]) | MIC (μg/mL) M. catarrhalis (Moraxella catarrhalis; [11]) | MIC (μg/mL) P. aeruginosa (Pseudomonas aeruginosa; [12])
50 µg/mL: MIC (μg/mL) E. coli BL21 (E. coli BL21; [4]) | MIC (μg/mL) K. pneumonia (Klebsiella pneumonia; [8])

PRT431 (DIDECRTIPEACRGDMMCVNQNGGYLCIPRTNPVYRGPYSN; listed as Homo sapiens)
12.5 µg/mL: MIC (E. coli BL21; [4]) | MIC (Aeromonas hydrophila; [6]) | MIC (Klebsiella pneumonia; [8]) | MIC (Serratia marcescens; [10]) | MIC (Moraxella catarrhalis; [11])
25 µg/mL: MIC (Proteus vulgaris; [7])
50 µg/mL: MIC (Citrobacter diversus; [3]) | MIC (Enterobacter cloacae; [5]) | MIC (E. coli DH5α) | MIC (Proteus mirabilis; [9]) | MIC (Pseudomonas aeruginosa; [12])

PRT258 (CSHPDRGGCSENAECVPGSLGTHHCTCHKGWSGDGRVC; listed as Homo sapiens)
12.5 µg/mL: MIC (μg/mL) E. coli BL21 (E. coli BL21; [4]) | MIC (μg/mL) A. hydrophila (Aeromonas hydrophila; [6]) | MIC (μg/mL) K. pneumonia (Klebsiella pneumonia; [8]) | MIC (μg/mL) M. catarrhalis (Moraxella catarrhalis; [11])
50 µg/mL: MIC (μg/mL) E. cloacae (Enterobacter cloacae; [5]) | MIC (μg/mL) P. vulgaris (Proteus vulgaris; [7]) | MIC (E. coli DH5α) | MIC (μg/mL) P. aeruginosa (Pseudomonas aeruginosa; [12])
25 µg/mL: MIC (μg/mL) C. diversus (Citrobacter diversus; [3]) | MIC (μg/mL) P. mirabilis (Proteus mirabilis; [9]) | MIC (μg/mL) S. marcescens (Serratia marcescens; [10])
